According to patent US9072734B2, “Quaternary ammonium salt compounds” (Teijin Pharma Limited, priority 2009, dated 2015):
Counter-ions that a name gives are not always drawn.

Tests used:
[1] = molecular target: T1, human M3 muscarinic receptor (Homo sapiens, UniProt P20309); assay: Inhibitory effect on methacholine-induced calcium influx, FLIPR assay, CHO-K1 cells stably expressing the human M3 muscarinic receptor; assay type: cell-based; conditions: inhibition of calcium influx induced by methacholine
T1 construct: expressed in transfected cells; host or cells: CHO-K1
From the text: Muscarinic receptor subtypes (M1, M3 and M5 receptors), which couple to Gq proteins, activate the phospholipase C (PLC) pathway upon agonist binding to the receptor. As a result, the activated PLC hydrolyzes phosphatidyl inositol diphosphate (PIP2) to diacyl glycerol (DAG) and […] (IP3), which in turn generates calcium release from intracellular stores, i.e., endoplasmic and sarcoplasmic reticula. By utilizing FLIPR (Molecular Devices, Inc.) assay in which a calcium sensitive dye (Component A) is used that fluoresces when free calcium binds, the increase in intracellular calcium is measured on the basis of the change in the fluorescence intensity.
Methacholine was added to CHO-K1 cells stably expressing the human M3 muscarinic receptor to induce calcium influx and evaluate the inhibitory effect of test compounds. In the experiment, a FLIPR Calcium assay kit (Molecular Devices, Inc.) was used.
CHO-K1 cells stably expressing the human M3 muscarinic receptor suspended in Ham's F-12 media (Invitrogen, Co.) containing 10% fetal bovine serum (FBS) were seeded into 96-well FLIPR plates at a volume of 100 μL/well. Next day, 60 μL/well of Non-wash-dye solution (Hank's buffered salt solution, HBSS, containing 20 mM HEPES and 6.5 mM probenecid) was added to the cells, which were then incubated for an hour at 37° C. in the presence of 5% carbon dioxide. 20 μL of 10 concentrations of test compound solutions (HBSS containing 1% DMSO, 20 mM HEPES, 2.5 mM probenecid and 0.05% bovine serum albumin, BSA) prepared at concentrations in a range of 0.01-1000 nM with 2-fold serial dilution) were added, followed by incubation for 180 seconds. Then, 20 μL of 30 nM methacholine solution (HBSS containing 20 mM HEPES, 2.5 mM probenecid and 0.05% bovine serum albumin, BSA) was added, and fluorescence intensity was traced by the intracellular calcium influx measuring device FLIPR 96 (Molecular Devices, Inc.) for 170 seconds. The difference between the lowest and the highest values of the fluorescence intensity (FI) over the period of the measurement was used as a measured value. The percentages of inhibition by the test compounds were calculated according to the following formula from the measured value of the methacholin-added and test compound non-added sample (FIpositive), the measured value of the methacholin non-added and test compound non-added sample (FInegative), and the measured value of the methacholin-added and test compound-added sample (FItest). (%) Percentage of inhibition by test compound=[(1−(FItest−FInegative)/(FIpositive−FInegative)]×100
The 50% inhibitory concentrations (IC50 values) of test compounds were analyzed by a four-parameter logistic model using XLfit4 (IDBS, Ltd.) for the percentage of the inhibition by different concentrations of test compounds.

[2] = molecular target: T2, human β2 adrenergic receptor (Homo sapiens, UniProt P07550); assay: Whole-cell cAMP Flashplate assay using CHO-K1 cells stably expressing human β2 adrenergic receptor; assay type: cell-based; conditions: cAMP production
T2 construct: expressed in transfected cells; host or cells: CHO-K1
Procedure: The β2 adrenergic receptor, which couples to Gs proteins, activates adenylate cyclase upon agonist binding to the receptor. As a result, cAMP is produced in cells. The activation ability of the β2 adrenergic receptor can be measured by measuring the amount of the cAMP with cAMP-Screen System (Applied Biosystems).
CHO-K1 cells expressing the human β2 adrenergic receptor suspended in Ham's F-12 media containing 10% FBS were seeded into 96-well plates at a volume of 100 μL/well. Next day, they were washed with 200 μL PBS(−), to which 80 μL of 0.5 mM IBMX solution (Ham's F-12 media containing 0.05% BSA) was then added, followed by incubation for 20 minutes at 37° C. in the presence of 5% carbon dioxide. 20 μL of 9 concentrations of test compound solutions (0.5 mM IBMX solution containing 1% DMSO) prepared at concentrations in a range of 0.01-1000 nM with 2-fold serial dilution) were added, followed by incubation for 20 minutes at 37° C. in the presence of 5% carbon dioxide. Then, 100 μL of Assay/Lysis Buffer (a reagent that comes with cAMP Screen System) was added. The cells were lysed by pipetting, further incubated for 30 minutes at 37° C., and then frozen at −80° C. After several days, samples, thawed at room temperature, were treated according to the protocol of cAMP Screen System, and then chemiluminescence was measured by EnVision (PerkinElmer, Inc.). The amount of cAMP was calculated from the standard curve for the standard attached to cAMP Screen System.
The concentrations of a test compound at which 50% of its maximal effect is reached (EC50 values) were analyzed by a four-parameter logistic model using XLfit4 (IDBS, Ltd.) for the amounts of cAMP production at different concentrations of the test compounds.

T1 sequence (P20309 whole entry): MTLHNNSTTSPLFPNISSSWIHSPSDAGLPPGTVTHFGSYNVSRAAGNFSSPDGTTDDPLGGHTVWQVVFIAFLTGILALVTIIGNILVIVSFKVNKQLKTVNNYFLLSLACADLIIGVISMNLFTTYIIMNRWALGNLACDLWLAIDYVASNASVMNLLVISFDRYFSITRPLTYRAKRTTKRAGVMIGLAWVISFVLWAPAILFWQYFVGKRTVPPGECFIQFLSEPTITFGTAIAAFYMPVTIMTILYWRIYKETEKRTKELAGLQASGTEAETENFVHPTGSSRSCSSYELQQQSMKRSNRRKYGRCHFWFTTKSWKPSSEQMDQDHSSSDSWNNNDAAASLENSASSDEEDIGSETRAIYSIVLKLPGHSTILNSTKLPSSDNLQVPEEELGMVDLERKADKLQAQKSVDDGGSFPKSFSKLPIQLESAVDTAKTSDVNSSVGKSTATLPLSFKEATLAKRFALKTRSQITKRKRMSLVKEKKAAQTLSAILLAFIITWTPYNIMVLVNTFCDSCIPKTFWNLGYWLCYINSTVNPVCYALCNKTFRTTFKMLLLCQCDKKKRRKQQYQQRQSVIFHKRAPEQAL
T2 sequence (P07550 whole entry): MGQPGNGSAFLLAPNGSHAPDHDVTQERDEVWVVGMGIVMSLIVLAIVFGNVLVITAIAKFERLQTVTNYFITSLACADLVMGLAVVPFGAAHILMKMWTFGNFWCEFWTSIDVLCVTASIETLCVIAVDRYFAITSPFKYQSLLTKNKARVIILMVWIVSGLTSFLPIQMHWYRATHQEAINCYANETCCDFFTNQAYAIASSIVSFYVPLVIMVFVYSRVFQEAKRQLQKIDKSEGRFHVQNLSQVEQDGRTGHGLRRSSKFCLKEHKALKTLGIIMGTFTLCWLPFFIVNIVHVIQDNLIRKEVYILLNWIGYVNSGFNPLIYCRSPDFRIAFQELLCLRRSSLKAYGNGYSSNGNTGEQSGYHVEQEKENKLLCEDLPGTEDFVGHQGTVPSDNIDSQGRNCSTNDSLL

Q: Which IC50 [1] does the source give for `COc1cc(CNC[C@H](O)c2ccc(O)c3[nH]c(=O)ccc23)ccc1NC(=O)CCCc1ccc(-c2ccccc2)c(NC(=O)OC2CC[N+](C)(C)CC2)c1` [Example 21, 4-({[5-(3-{[4-({[(2R)-2-hydroxy-2-(8-hydroxy-2-oxo-1,2-dihydroquinolin-5-yl)ethyl]amino}methyl)-2-methoxyphenyl]carbamoyl}propyl)-2-phenylphenyl]carbamoyl}oxy)-1,1-dimethylpiperidin-1-ium trifluoroacetate] here?
A: The IC50 was 16.8 nM.

Q: What about the EC50 [2] of the same molecule?
A: Its EC50 is 3.8 nM.

Q: For `Cc1cc(CNC[C@H](O)c2ccc(O)c3[nH]c(=O)ccc23)ccc1NC(=O)CCCc1ccc(-c2ccccc2)c(NC(=O)OC2CC[N+](C)(C)CC2)c1` [Example 22, 4-({[5-(3-{[4-({[(2R)-2-hydroxy-2-(8-hydroxy-2-oxo-1,2-dihydroquinolin-5-yl)ethyl]amino}methyl)-2-methylphenyl]carbamoyl}propyl)-2-phenylphenyl]carbamoyl}oxy)-1,1-dimethylpiperidin-1-ium trifluoroacetate], which IC50 [1] is on record?
A: Its IC50 is 15.8 nM.

Q: And the EC50 [2]?
A: The EC50 was 2.2 nM.

Q: What does the source list for `C[N+]1(C)CCC(OC(=O)Nc2cc(CCCC(=O)Nc3ccc4cc(CNC[C@H](O)c5ccc(O)c6[nH]c(=O)ccc56)ccc4c3)ccc2-c2ccccc2)CC1` [Example 23, 4-({[5-(3-{[6-({[(2R)-2-hydroxy-2-(8-hydroxy-2-oxo-1,2-dihydroquinolin-5-yl)ethyl]amino}methyl)naphthalen-2-yl]carbamoyl}propyl)-2-phenylphenyl]carbamoyl}oxy)-1,1-dimethylpiperidin-1-ium trifluoroacetate]?
A: IC50 [1]: 34.3 nM; EC50 [2]: 2.6 nM

Q: How did the IC50 [1] turn out when `C[N+]1(C)CCC(OC(=O)Nc2cc(CCCC(=O)Nc3ccc(CNC[C@H](O)c4ccc(O)c5[nH]c(=O)ccc45)cn3)ccc2-c2ccccc2)CC1` [Example 24, 4-({[5-(3-{[5-({[(2R)-2-hydroxy-2-(8-hydroxy-2-oxo-1,2-dihydroquinolin-5-yl)ethyl]amino}methyl)pyridin-2-yl]carbamoyl}propyl)-2-phenylphenyl]carbamoyl}oxy)-1,1-dimethylpiperidin-1-ium trifluoroacetate] was run?
A: Its IC50 is 11.7 nM.

Q: What about the EC50 [2] of the same molecule?
A: The EC50 was 6.6 nM.

Q: What does the source list for `CCOc1cc(NC(=O)CCCc2ccc(-c3ccccc3)c(NC(=O)OC3CC[N+](C)(C)CC3)c2)c(Cl)cc1CNC[C@H](O)c1ccc(O)c2[nH]c(=O)ccc12` [Example 26, 4-({[5-(3-{[2-chloro-5-ethoxy-4-({[(2R)-2-hydroxy-2-(8-hydroxy-2-oxo-1,2-dihydroquinolin-5-yl)ethyl]amino}methyl)phenyl]carbamoyl}propyl)-2-phenylphenyl]carbamoyl}oxy)-1,1-dimethylpiperidin-1-ium trifluoroacetate]?
A: IC50 [1]: 23.2 nM; EC50 [2]: 0.9 nM

Q: What does the source list for `CCOc1cc(NC(=O)CCCc2ccc(-c3ccccc3)c(NC(=O)OC3CC[N+](C)(C)CC3)c2)ccc1CNC[C@H](O)c1ccc(O)c2[nH]c(=O)ccc12` [Example 27, 4-({[5-(3-{[5-ethoxy-4-({[(2R)-2-hydroxy-2-(8-hydroxy-2-oxo-1,2-dihydroquinolin-5-yl)ethyl]amino}methyl)phenyl]carbamoyl}propyl)-2-phenylphenyl]carbamoyl}oxy)-1,1-dimethylpiperidin-1-ium trifluoroacetate]?
A: IC50 [1]: 16.1 nM; EC50 [2]: 1.5 nM

Q: Which IC50 [1] does the source give for `C[N+]1(C)CCC(OC(=O)Nc2cc(CCCC(=O)Nc3ccc(CNC[C@H](O)c4ccc(O)c5[nH]c(=O)ccc45)cc3F)ccc2-c2ccccc2)CC1` [Example 28, 4-({[5-(3-{[2-fluoro-4-({[(2R)-2-hydroxy-2-(8-hydroxy-2-oxo-1,2-dihydroquinolin-5-yl)ethyl]amino}methyl)phenyl]carbamoyl}propyl)-2-phenylphenyl]carbamoyl}oxy)-1,1-dimethylpiperidin-1-ium trifluoroacetate] here?
A: The IC50 was 10 nM.

Q: And the EC50 [2]?
A: The EC50 was 0.7 nM.

Q: For `C[N+]1(C)CCC(OC(=O)Nc2cc(CCCC(=O)Nc3ccc(CNC[C@H](O)c4ccc(O)c5[nH]c(=O)ccc45)c(Cl)c3)ccc2-c2ccccc2)CC1` [Example 29, 4-({[5-(3-{[3-chloro-4-({[(2R)-2-hydroxy-2-(8-hydroxy-2-oxo-1,2-dihydroquinolin-5-yl)ethyl]amino}methyl)phenyl]carbamoyl}propyl)-2-phenylphenyl]carbamoyl}oxy)-1,1-dimethylpiperidin-1-ium trifluoroacetate], which IC50 [1] is on record?
A: Its IC50 is 13.6 nM.

Q: And the EC50 [2]?
A: The EC50 was 4.8 nM.

Q: `C[N+]1(C)CCC(OC(=O)Nc2cc(CCCC(=O)Nc3ccc(CNC[C@H](O)c4ccc(O)c5[nH]c(=O)ccc45)cc3Br)ccc2-c2ccccc2)CC1` [Example 30, 4-({[5-(3-{[2-bromo-4-({[(2R)-2-hydroxy-2-(8-hydroxy-2-oxo-1,2-dihydroquinolin-5-yl)ethyl]amino}methyl)phenyl]carbamoyl}propyl)-2-phenylphenyl]carbamoyl}oxy)-1,1-dimethylpiperidin-1-ium trifluoroacetate] was tested. Which IC50 [1] did it give?
A: The IC50 was 12.9 nM.

Q: And the EC50 [2]?
A: Its EC50 is 0.5 nM.

Q: How did the IC50 [1] turn out when `C[N+]1(C)CCC(OC(=O)Nc2cc(CCCC(=O)Nc3ccc(CNC[C@H](O)c4ccc(O)c5[nH]c(=O)ccc45)c(C(F)(F)F)c3)ccc2-c2ccccc2)CC1` [Example 31, 4-({[5-(3-{[4-({[(2R)-2-hydroxy-2-(8-hydroxy-2-oxo-1,2-dihydroquinolin-5-yl)ethyl]amino}methyl)-3-(trifluoromethyl)phenyl]carbamoyl}propyl)-2-phenylphenyl]carbamoyl}oxy)-1,1-dimethylpiperidin-1-ium trifluoroacetate] was run?
A: Its IC50 is 15.7 nM.

Q: What about the EC50 [2] of the same molecule?
A: Its EC50 is 25.1 nM.

Q: With `C[N+]1(C)CCC(OC(=O)Nc2cc(CCCC(=O)Nc3ccc(CNC[C@H](O)c4ccc(O)c5[nH]c(=O)ccc45)cc3)ccc2-c2ccccc2)CC1` [Example 32, 4-({[5-(3-{[4-({[(2R)-2-hydroxy-2-(8-hydroxy-2-oxo-1,2-dihydroquinolin-5-yl)ethyl]amino}methyl)phenyl]carbamoyl}propyl)-2-phenylphenyl]carbamoyl}oxy)-1,1-dimethylpiperidin-1-ium trifluoroacetate] as the molecule, how does the IC50 [1] read?
A: The IC50 was 16.1 nM.

Q: And the EC50 [2]?
A: Its EC50 is 8.4 nM.

Q: Which results are given for `C[N+]1(C)[C@@H]2C[C@@H](OC(=O)Nc3cc(CCCC(=O)Nc4ccc(CNC[C@H](O)c5ccc(O)c6[nH]c(=O)ccc56)cc4)ccc3-c3ccccc3)C[C@H]1[C@@H]1O[C@@H]12` [Example 33, (1R,2R,4S,5S,7S)-7-({[5-(3-{[4-({[(2R)-2-hydroxy-2-(8-hydroxy-2-oxo-1,2-dihydroquinolin-5-yl)ethyl]amino}methyl)phenyl]carbamoyl}propyl)-2-phenylphenyl]carbamoyl}oxy)-9,9-dimethyl-3-oxa-9-azatricyclo[3.3.1.0^2,4]nonan-9-ium trifluoroacetate]?
A: IC50 [1]: 22.1 nM; EC50 [2]: 4.6 nM

Q: How did the IC50 [1] turn out when `COc1cc(NC(=O)CCCc2ccc(-c3ccccc3)c(NC(=O)O[C@@H]3C[C@@H]4[C@H]5O[C@H]5[C@H](C3)[N+]4(C)C)c2)c(Cl)cc1CNC[C@H](O)c1ccc(O)c2[nH]c(=O)ccc12` [Example 34, (1R,2R,4S,5S,7S)-7-({[5-(3-{[2-chloro-4-({[(2R)-2-hydroxy-2-(8-hydroxy-2-oxo-1,2-dihydroquinolin-5-yl)ethyl]amino}methyl)-5-methoxyphenyl]carbamoyl}propyl)-2-phenylphenyl]carbamoyl}oxy)-9,9-dimethyl-3-oxa-9-azatricyclo[3.3.1.0^2,4]nonan-9-ium trifluoroacetate] was run?
A: The IC50 was 22 nM.

Q: What about the EC50 [2] of the same molecule?
A: The EC50 was 1.2 nM.
